US6589967B1, “Oxime O-ether compounds and fungicides for agricultural and horticultural use” (Nippon Soda Co. Ltd., priority 1999, dated 2003)

System: snap bean gray mold fungus (Botrytis cinerea)
Experiment: Test on Kidney Bean Gray Mold Control
Format: in vivo
Conditions: 50 ppm active ingredient, cut Kidney bean flowers (Nagauzura) dipped, spores sprayed, placed on detached leaves, 7 days at 20° C., high humidity
Method: Now, explanation is made on how the compounds according to the present invention are effective as an active ingredient of a fungicide for controlling various plant diseases with reference to Test examples described later. In the Test Examples, the control efficacy is determined by visually checking the infested state of the test plants at the time of observation, namely, checking the damage to the host plants and the developing state of the disease-causing fungus appeared on leaves, stems, etc. of the test plants, compared to the control test plants which are healthy. Flowers of Kidney bean (variety; Nagauzura) grown in a flat vessel for culturing seedlings are cut, and the cut flowers were dipped into a solution prepared by diluting the emulsifiable concentrate prepared for the compound of the present invention at a concentration of 50 ppm based on the active ingredient. After the dipping, the flowers were dried at a room temperature. Then, spore solution of snap bean gray mold fungus (Botrytis cinerea) was sprayed to the flowers. The flowers sprayed with spores of the gray mold fungus were placed on the leaves which were detached from healthy Kidney bean plants, and those leaves were placed in a room being maintained at 20° C. and high humidity with repeated lighting of 12 hours intervals, and the Kidney bean leaves were incubated in the room for 7 days. Then, the infestation degree by the fungus on the leaves was checked in comparison to the control healthy leaves to determine the control efficacy. […] Note that the compound numbers in the following correspond to the same compound numbers in the Table 1. Compound Nos. 1, 3, 6, 7, 11, 12, 13, 14, 15, 18, 20, 21, 22, 23, 25, 26, 27, 29, 36, 48, 49, 192, 194, 195, 196, 198, 201, 203, 204, 207, 208, 209, 210, 213, 216, 219, 220, 222, 223, 224, 225, 227, 228, 229, 231, 233, 234, 235, 236, 237, 239, 240, 242

Row | Structure (SMILES) | control performance (control efficacy)
1 | COc1cccc(OC)c1CON=Cc1ccccn1 [compound 231] | excellent control performance
2 | COc1cccc(OC)c1CON=Cc1cc(C)cc(C)n1.Cl [compound 236] | excellent control performance
3 | COCc1cccc(OC)c1CON=Cc1cc(C)cc(C)n1 [compound 237] | excellent control performance
4 | COc1ccc(C)c(OC)c1CON=Cc1cc(C)cc(C)n1 [compound 240] | excellent control performance
5 | COc1ccc(Cl)c(OC)c1CON=Cc1cc(C)cc(C)n1 [compound 242] | excellent control performance
